# Reference: the supplement of paper PMC10307832
# Legend:
# Experiment in all cases: relative viability (nuclei count vs DMSO), 5 days (fraction); higher = more cells survive
# [1] = compound: CCC1=CN=CN=C1N2CCN(CC2)CC3=NC4=C(N3)C=C(C=C4)C(F)(F)F + CS(=O)(=O)CCNCc1ccc(-c2ccc3ncnc(Nc4ccc(OCc5cccc(F)c5)c(Cl)c4)c3c2)o1 [Lapatinib] (partner 2 µM)
# Procedure, shortened: (§1)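 Relative viability divides the nuclei count in treated wells by that in vehicle wells. Lung cancer cell lines were seeded in 1536-well plates, dosed by pin tool the next day, and fixed and stained after 5 days in one step with final 0.05% Triton X-100, 1% formaldehyde and 1 ug/ml Hoechst. Dosing was a single drug or a fixed anchor-drug dose plus five library-drug doses (not always all listed) in √10 steps, and values are medians of duplicate plates imaged at 4×.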
# [2] = compound: CCC1=CN=CN=C1N2CCN(CC2)CC3=NC4=C(N3)C=C(C=C4)C(F)(F)F + NC(=O)Nc1cc(-c2cccc(F)c2)sc1C(=O)N[C@H]1CCCNC1 [AZD7762] (partner 0.2 µM)
# Procedure, shortened: as §1
# Mirin + Trametinib = compound: N=C1NC(=O)/C(=C/c2ccc(O)cc2)S1 [Mirin] + CC(=O)Nc1cccc(-n2c(=O)n(C3CC3)c(=O)c3c(Nc4ccc(I)cc4F)n(C)c(=O)c(C)c32)c1 [Trametinib] (partner 0.02 µM)
# Procedure, shortened: as §1
# Mirin + Olaparib = compound: N=C1NC(=O)/C(=C/c2ccc(O)cc2)S1 [Mirin] + O=C(c1cc(Cc2n[nH]c(=O)c3ccccc23)ccc1F)N1CCN(C(=O)C2CC2)CC1 [Olaparib] (partner 8 µM)
# Procedure, shortened: as §1
Cell Line,relative viability ([1]; first compound 0.04 µM),relative viability ([1]; first compound 0.1265 µM),relative viability ([1]; first compound 0.4 µM),relative viability ([1]; first compound 1.265 µM),relative viability ([1]; first compound 4 µM),relative viability ([2]; first compound 0.04 µM),relative viability ([2]; first compound 0.1265 µM),relative viability ([2]; first compound 0.4 µM),relative viability ([2]; first compound 1.265 µM),relative viability ([2]; first compound 4 µM),relative viability (Mirin + Trametinib; first compound 0.25 µM),relative viability (Mirin + Trametinib; first compound 0.7906 µM),relative viability (Mirin + Trametinib; first compound 2.5 µM),relative viability (Mirin + Trametinib; first compound 7.906 µM),relative viability (Mirin + Trametinib; first compound 25 µM),relative viability (Mirin + Olaparib; first compound 0.25 µM),relative viability (Mirin + Olaparib; first compound 0.7906 µM),relative viability (Mirin + Olaparib; first compound 2.5 µM),relative viability (Mirin + Olaparib; first compound 7.906 µM),relative viability (Mirin + Olaparib; first compound 25 µM)
NCI-H596,0.982,1.13,0.927,0.817,1.23,1.21,1.07,1.07,0.992,1.08,0.872,0.77,0.763,0.873,0.835,0.661,0.775,0.67,0.745,0.881
NCI-H647,1.27,1.04,,0.802,1.09,0.438,0.476,0.457,0.471,0.554,0.475,0.605,0.548,0.524,0.474,0.567,0.617,0.617,0.479,0.164
NCI-H650,0.73,0.762,1.21,1.01,1.06,0.844,0.909,1.01,1.29,0.946,1.08,0.93,0.938,0.968,0.88,0.365,0.433,0.352,0.307,0.366
NCI-H727,0.82,0.799,0.802,,0.741,0.641,0.593,0.522,0.566,0.541,0.443,0.348,0.41,0.341,0.34,0.728,0.6,0.768,0.602,0.561
NCI-H838,1.09,0.876,0.92,0.692,1.03,1.04,0.877,0.904,0.829,0.948,0.548,0.577,0.52,0.528,0.513,0.788,0.811,0.829,0.749,0.529
NCI-H1355,1,0.812,0.952,0.844,1.1,0.744,0.722,0.638,0.627,0.637,0.457,0.482,0.48,0.374,0.399,0.681,0.747,0.692,0.755,0.745
NCI-H1395,0.929,0.938,1.04,0.957,1.05,0.398,0.349,0.37,,0.474,0.996,,1.03,1.01,1,0.427,,0.478,0.426,0.425
NCI-H1437,0.777,0.668,0.74,0.635,0.641,1.13,1.15,0.996,1.03,0.706,0.597,0.46,0.555,0.519,0.399,0.637,0.641,0.607,0.625,0.549
NCI-H1651,0.839,0.827,0.818,0.787,0.87,0.452,0.433,0.436,0.484,0.524,0.809,0.875,0.886,0.767,0.855,0.182,0.208,0.182,0.167,0.199
NCI-H1666,0.625,0.579,0.482,0.544,0.616,0.864,0.77,0.767,0.716,0.815,0.909,0.764,0.77,0.607,0.772,0.763,0.797,0.737,0.71,0.728
NCI-H1734,1.03,1.07,1.08,,1.04,0.619,0.626,0.562,0.564,0.782,0.688,0.749,0.646,0.633,0.675,0.538,0.582,0.662,0.556,0.461
NCI-H1755,1.07,0.93,0.981,0.924,1.1,0.579,0.528,0.434,0.395,0.602,0.745,0.793,0.755,0.771,0.841,0.851,0.914,0.866,0.833,0.93
NCI-H1792,0.769,0.808,0.851,0.978,0.884,0.666,0.66,0.527,,0.685,0.422,0.36,0.43,0.421,0.332,0.533,0.392,0.484,0.383,0.495
NCI-H1793,0.581,0.652,0.534,,0.635,0.548,0.407,0.392,0.334,0.347,0.497,,0.39,0.352,0.607,0.649,,0.958,0.873,0.703
NCI-H1915,0.927,0.89,0.995,0.957,1.06,0.684,0.688,0.694,0.597,0.734,0.29,0.332,0.28,0.328,0.389,0.283,0.221,0.272,0.223,0.182
NCI-H1944,0.976,0.691,0.767,,0.875,0.757,0.512,0.465,0.379,0.607,0.35,0.397,0.387,0.387,0.32,0.377,0.421,0.391,0.328,0.296
NCI-H1975,1.16,0.824,0.851,0.739,0.846,0.662,0.744,0.713,0.645,0.746,0.379,0.337,0.365,0.337,0.55,0.892,0.83,0.819,0.855,0.715
